Our source for the IC50 values is US10954219B2, “1,3-benzodioxole derivative” (DAIICHI SANKYO COMPANY, LIMITED, priority 2014, dated 2021).

Where a name gives a salt, the structure may show the parent alone.

The target in test [1] is T1, PRC2-EZH2 (WT EZH2) (Homo sapiens, UniProt Q15910).
T1 construct: made in house
Description: EZH2 methyltransferase inhibitory activity evaluation. The format is biochemical. Conditions: PRC2-EZH2, biotin-H3 peptide, 3H-SAM, 2 hours.
Description: EZH2 Methyltransferase Inhibitory Activity Evaluation
(§1) Then, the residual radioactivity was measured using TopCount NXT HTS (PerkinElmer, Inc., model C384V01).

Test [2] concerns the target PRC2-EZH1 (WT EZH1) (Homo sapiens, UniProt Q92800). Description: EZH1 methyltransferase inhibitory activity evaluation.
Description: EZH1 Methyltransferase Inhibitory Activity Evaluation
as §1
The subject of test [3] is Intracellular H3K27me3 in HCT116 cells. Description: Intracellular H3K27me3 inhibitory activity evaluation. The test is classed as cell-based. Conditions: Homo sapiens, HCT-116, 72 h, 3 days, AlphaLISA, read-out: Test Example 3 H3K27me3 inhibition (HCT116) IC50.
Description: The HCT116 cells were purchased from American Type Culture Collection (ATCC). […] Intracellular H3K27me3 was quantified using AlphaLISA H3K27me3 Cellular Detection Kit (PerkinElmer, Inc., #AL722F). The cells thus cultured in each well were washed with 100 μL of PBS. Cell-Histone Lysis buffer diluted 6-fold with PBS was added thereto at 80 μL/well, and the plate was then incubated at room temperature for 15 minutes while shaken. Then, Cell-Histone Extraction buffer was added thereto at 40 μL/well, and the plate was incubated at room temperature for 10 minutes while shaken. […] An AlphaLISA anti-H3K27me3 Acceptor beads/Biotinylated Antibody anti-Histone H3 (C-ter) mixed solution was added thereto at 3.3 μL/well, and the plate was incubated at room temperature for 60 minutes. Then, Streptavidin (SA)-coated Donor beads were added thereto at 3.3 μL/well, and the plate was incubated at room temperature for 30 minutes with the plate shielded from light.

T1 sequence (Q15910 whole entry): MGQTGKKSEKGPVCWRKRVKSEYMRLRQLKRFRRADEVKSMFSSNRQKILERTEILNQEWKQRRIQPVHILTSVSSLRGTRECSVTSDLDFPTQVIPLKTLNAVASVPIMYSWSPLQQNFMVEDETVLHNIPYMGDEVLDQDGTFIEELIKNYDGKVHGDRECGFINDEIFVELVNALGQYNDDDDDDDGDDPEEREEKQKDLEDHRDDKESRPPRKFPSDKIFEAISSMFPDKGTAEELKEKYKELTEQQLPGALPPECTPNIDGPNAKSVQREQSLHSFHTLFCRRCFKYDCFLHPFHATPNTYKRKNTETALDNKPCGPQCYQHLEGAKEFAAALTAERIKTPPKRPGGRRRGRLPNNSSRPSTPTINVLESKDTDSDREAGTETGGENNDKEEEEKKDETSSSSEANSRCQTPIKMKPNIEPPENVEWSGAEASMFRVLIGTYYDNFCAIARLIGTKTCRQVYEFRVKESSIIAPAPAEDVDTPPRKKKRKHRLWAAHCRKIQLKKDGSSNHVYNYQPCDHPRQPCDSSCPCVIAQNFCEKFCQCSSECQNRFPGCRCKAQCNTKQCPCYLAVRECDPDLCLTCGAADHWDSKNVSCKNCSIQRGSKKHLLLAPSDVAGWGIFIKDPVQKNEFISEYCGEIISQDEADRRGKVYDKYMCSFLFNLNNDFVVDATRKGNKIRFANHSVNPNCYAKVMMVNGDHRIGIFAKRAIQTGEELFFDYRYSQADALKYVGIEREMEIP
T1 sequence (O75530 whole entry partner): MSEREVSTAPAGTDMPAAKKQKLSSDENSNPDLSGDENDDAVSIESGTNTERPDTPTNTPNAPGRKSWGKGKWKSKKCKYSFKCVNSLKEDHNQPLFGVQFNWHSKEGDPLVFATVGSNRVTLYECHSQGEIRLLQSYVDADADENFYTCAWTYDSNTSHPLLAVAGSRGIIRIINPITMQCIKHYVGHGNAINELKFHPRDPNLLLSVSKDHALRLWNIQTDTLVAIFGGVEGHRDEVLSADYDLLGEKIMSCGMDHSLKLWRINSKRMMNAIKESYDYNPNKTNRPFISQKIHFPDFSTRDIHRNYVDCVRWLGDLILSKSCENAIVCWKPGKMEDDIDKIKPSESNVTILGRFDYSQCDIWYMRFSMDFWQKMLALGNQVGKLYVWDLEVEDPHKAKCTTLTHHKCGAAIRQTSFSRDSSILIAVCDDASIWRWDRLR
T1 sequence (Q15022 whole entry partner): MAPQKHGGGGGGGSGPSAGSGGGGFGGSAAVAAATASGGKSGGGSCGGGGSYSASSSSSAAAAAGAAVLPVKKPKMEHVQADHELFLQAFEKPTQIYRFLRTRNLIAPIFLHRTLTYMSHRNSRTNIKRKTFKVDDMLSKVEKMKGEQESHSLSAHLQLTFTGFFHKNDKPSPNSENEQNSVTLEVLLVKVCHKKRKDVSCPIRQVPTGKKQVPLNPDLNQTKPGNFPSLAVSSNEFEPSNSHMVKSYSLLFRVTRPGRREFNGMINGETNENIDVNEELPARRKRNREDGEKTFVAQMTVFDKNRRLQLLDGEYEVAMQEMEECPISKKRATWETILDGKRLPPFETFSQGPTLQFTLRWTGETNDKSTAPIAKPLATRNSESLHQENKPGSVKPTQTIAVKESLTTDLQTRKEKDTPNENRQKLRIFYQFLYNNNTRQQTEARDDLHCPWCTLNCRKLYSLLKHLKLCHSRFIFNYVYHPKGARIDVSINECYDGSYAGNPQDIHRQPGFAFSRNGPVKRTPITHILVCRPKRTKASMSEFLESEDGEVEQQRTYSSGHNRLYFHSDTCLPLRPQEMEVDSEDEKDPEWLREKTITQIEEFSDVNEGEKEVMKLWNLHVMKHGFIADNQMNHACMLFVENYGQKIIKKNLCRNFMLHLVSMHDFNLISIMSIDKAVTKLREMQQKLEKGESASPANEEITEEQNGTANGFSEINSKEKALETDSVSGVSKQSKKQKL
PRC2-EZH1 (WT EZH1), sequence (Q92800 whole entry): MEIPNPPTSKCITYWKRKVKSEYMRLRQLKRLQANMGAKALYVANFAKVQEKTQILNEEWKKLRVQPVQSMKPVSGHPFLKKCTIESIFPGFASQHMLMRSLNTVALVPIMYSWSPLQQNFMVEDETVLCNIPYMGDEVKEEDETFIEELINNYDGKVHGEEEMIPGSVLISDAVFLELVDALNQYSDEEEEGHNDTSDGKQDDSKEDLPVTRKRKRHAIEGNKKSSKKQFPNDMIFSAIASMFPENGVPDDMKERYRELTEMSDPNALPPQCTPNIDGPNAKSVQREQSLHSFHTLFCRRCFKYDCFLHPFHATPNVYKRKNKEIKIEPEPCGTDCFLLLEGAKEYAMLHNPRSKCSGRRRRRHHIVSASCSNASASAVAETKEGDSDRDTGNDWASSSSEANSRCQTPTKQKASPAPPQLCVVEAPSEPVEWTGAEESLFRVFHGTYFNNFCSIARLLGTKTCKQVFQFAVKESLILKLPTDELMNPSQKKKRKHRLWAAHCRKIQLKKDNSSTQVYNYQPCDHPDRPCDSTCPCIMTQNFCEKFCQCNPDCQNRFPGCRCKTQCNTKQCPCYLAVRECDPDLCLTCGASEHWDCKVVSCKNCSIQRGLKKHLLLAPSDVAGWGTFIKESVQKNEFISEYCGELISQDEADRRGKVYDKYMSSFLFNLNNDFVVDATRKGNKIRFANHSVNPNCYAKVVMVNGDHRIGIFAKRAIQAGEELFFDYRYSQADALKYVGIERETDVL
PRC2-EZH1 (WT EZH1), sequence (O75530 whole entry partner): as the sequence (O75530 whole entry partner) above
PRC2-EZH1 (WT EZH1), sequence (Q15022 whole entry partner): as the sequence (Q15022 whole entry partner) above
PRC2-EZH1 (WT EZH1), sequence (Q09028 whole entry partner): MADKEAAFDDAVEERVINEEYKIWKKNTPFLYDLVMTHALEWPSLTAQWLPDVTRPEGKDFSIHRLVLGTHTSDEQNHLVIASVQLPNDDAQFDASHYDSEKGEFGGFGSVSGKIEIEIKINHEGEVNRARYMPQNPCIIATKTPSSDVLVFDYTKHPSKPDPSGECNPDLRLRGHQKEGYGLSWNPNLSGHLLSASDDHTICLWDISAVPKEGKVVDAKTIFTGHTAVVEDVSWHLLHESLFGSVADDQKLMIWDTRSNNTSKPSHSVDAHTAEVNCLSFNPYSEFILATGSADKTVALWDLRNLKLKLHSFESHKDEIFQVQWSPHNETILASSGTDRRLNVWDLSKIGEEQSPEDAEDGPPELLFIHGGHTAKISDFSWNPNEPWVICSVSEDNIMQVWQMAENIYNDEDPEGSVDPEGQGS
PRC2-EZH1 (WT EZH1), sequence (Q6ZN18 whole entry partner): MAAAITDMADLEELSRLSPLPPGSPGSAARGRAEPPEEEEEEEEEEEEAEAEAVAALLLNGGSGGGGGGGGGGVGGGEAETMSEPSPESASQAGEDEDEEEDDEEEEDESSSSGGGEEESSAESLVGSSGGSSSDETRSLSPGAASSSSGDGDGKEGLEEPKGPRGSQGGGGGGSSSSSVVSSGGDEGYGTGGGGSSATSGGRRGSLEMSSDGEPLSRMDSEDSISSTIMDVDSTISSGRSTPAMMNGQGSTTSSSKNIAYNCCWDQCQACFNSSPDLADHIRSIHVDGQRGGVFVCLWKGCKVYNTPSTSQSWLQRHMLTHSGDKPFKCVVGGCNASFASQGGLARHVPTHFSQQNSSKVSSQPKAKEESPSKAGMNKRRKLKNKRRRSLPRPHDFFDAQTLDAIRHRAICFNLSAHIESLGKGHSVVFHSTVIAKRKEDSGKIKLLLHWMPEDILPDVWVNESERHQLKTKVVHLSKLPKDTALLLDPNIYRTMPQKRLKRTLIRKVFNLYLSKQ

A word on the IC50: it is the concentration needed to halve the response being measured. For the molecule `Cc1cc(C)c(CNC(=O)c2cc(Br)c3c(c2C)OC(C)(C[C@H]2CC[C@H](N(C)C)CC2)O3)c(=O)[nH]1` (relative stereo) [Example 28, 7-Bromo-2-[[trans-4-(dimethylamino)cyclohexyl]methyl]-N-[(4,6-dimethyl-2-oxo-1,2-dihydropyridin-3-yl)methyl]-2,4-dimethyl-1,3-benzodioxole-5-carboxamide], the values for the IC50 in test [1], in test [2] and in test [3] were 20 nM, 78 nM and 14 nM, respectively.

On to `CN[C@H]1CC[C@H](C2(C)Oc3c(Cl)cc(C(=O)NCc4c(C)cc(C)[nH]c4=O)c(C)c3O2)CC1` (relative stereo) [Example 32, 7-Chloro-N-[(4,6-dimethyl-2-oxo-1,2-dihydropyridin-3-yl)methyl]-2,4-dimethyl-2-[trans-4-(methylamino)cyclohexyl]-1,3-benzodioxole-5-carboxamide], for which the half-inhibitory concentration (IC50) in test [1] was 17 nM; in test [2], 30 nM; in test [3] it was 4.8 nM.

On to `Cc1cc(C)c(CNC(=O)c2cc(Cl)c3c(c2C)OC(C)([C@H]2CC[C@H](N(C)C=O)CC2)O3)c(=O)[nH]1` (relative stereo) [Example 33, 7-Chloro-N-[(4,6-dimethyl-2-oxo-1,2-dihydropyridin-3-yl)methyl]-2-[trans-4-[formyl(methyl)amino]cyclohexyl]-2,4-dimethyl-1,3-benzodioxole-5-carboxamide], for which the figures for the IC50 in test [1], in test [2] and in test [3] were 28 nM, 260 nM and 14 nM, respectively.

With `COc1cc(C)[nH]c(=O)c1CNC(=O)c1cc(Cl)c2c(c1C)OC(C)([C@H]1CC[C@H](N(C)C)CC1)O2` (relative stereo) [Example 36, 7-Chloro-2-[trans-4-(dimethylamino)cyclohexyl]-N-[(4-methoxy-6-methyl-2-oxo-1,2-dihydropyridin-3-yl)methyl]-2,4-dimethyl-1,3-benzodioxole-5-carboxamide], the IC50 in test [1] worked out at 13 nM; in test [2] it was 13 nM; in test [3], 1.6 nM.

Turning to `CCc1cc(C)[nH]c(=O)c1CNC(=O)c1cc(Cl)c2c(c1C)OC(C)([C@H]1CC[C@H](N(C)C)CC1)O2` (relative stereo) [Example 37, 7-Chloro-2-[trans-4-(dimethylamino)cyclohexyl]-N-[(4-ethyl-6-methyl-2-oxo-1,2-dihydropyridin-3-yl)methyl]-2,4-dimethyl-1,3-benzodioxole-5-carboxamide], the IC50 turned out to be 19 nM in test [1], 28 nM in test [2] and 1.6 nM in test [3].

Consider `Cc1cc(C)c(CNC(=O)c2cc(F)c3c(c2C)OC(C)([C@H]2CC[C@H](N(C)C)CC2)O3)c(=O)[nH]1` (relative stereo) [Example 46, 2-[trans-4-(Dimethylamino)cyclohexyl]-N-[(4,6-dimethyl-2-oxo-1,2-dihydropyridin-3-yl)methyl]-7-fluoro-2,4-dimethyl-1,3-benzodioxole-5-carboxamide], for which the results for the IC50 in test [1], in test [2] and in test [3] were 6.7 nM, 72 nM and 3.4 nM, respectively.

`Cc1cc(C)c(CNC(=O)c2cc(C)c3c(c2C)OC(C)([C@H]2CC[C@H](N(C)C)CC2)O3)c(=O)[nH]1` (relative stereo) [Example 47, 2-[trans-4-(Dimethylamino)cyclohexyl]-N-[(4,6-dimethyl-2-oxo-1,2-dihydropyridin-3-yl)methyl]-2,4,7-trimethyl-1,3-benzodioxole-5-carboxamide]: the IC50 in test [1] was determined as 10 nM; in test [2] it was 22 nM; in test [3], 1.4 nM.

For `COc1cc(C(=O)NCc2c(C)cc(C)[nH]c2=O)c(C)c2c1OC(C)([C@H]1CC[C@H](N(C)C)CC1)O2` (relative stereo) [Example 50, 2-[trans-4-(Dimethylamino)cyclohexyl]-N-[(4,6-dimethyl-2-oxo-1,2-dihydropyridin-3-yl)methyl]-7-methoxy-2,4-dimethyl-1,3-benzodioxole-5-carboxamide], the IC50 in test [1] came out at 20 nM; in test [2], 53 nM; in test [3], 7.1 nM.

Consider `Cc1cc(C)c(CNC(=O)c2cc(Cl)c3c(c2Cl)OC(C)([C@H]2CC[C@H](N(C)C)CC2)O3)c(=O)[nH]1` (relative stereo) [Example 53, 4,7-Dichloro-2-[trans-4-(dimethylamino)cyclohexyl]-N-[(4,6-dimethyl-2-oxo-1,2-dihydropyridin-3-yl)methyl]-2-methyl-1,3-benzodioxole-5-carboxamide], for which the IC50 came to 13 nM in test [1], 26 nM in test [2] and 0.63 nM in test [3].

On to `Cc1cc(C)c(CNC(=O)c2cc(C3=CCCC3)c3c(c2C)OC(C)([C@H]2CC[C@H](N(C)C)CC2)O3)c(=O)[nH]1` (relative stereo) [Example 58, 7-(Cyclopenten-1-yl)-2-[trans-4-(dimethylamino)cyclohexyl]-N-[(4,6-dimethyl-2-oxo-1,2-dihydropyridin-3-yl)methyl]-2,4-dimethyl-1,3-benzodioxole-5-carboxamide], for which the IC50 in test [1] was 10 nM; in test [2], 4.4 nM; in test [3], 2.9 nM.

As for `Cc1cc(C)c(CNC(=O)c2cc(-c3ccccc3)c3c(c2C)OC(C)([C@H]2CC[C@H](N(C)C)CC2)O3)c(=O)[nH]1` (relative stereo) [Example 59, 2-[trans-4-(Dimethylamino)cyclohexyl]-N-[(4,6-dimethyl-2-oxo-1,2-dihydropyridin-3-yl)methyl]-2,4-dimethyl-7-phenyl-1,3-benzodioxole-5-carboxamide], the IC50 came out at 8.7 nM in test [1], 5.7 nM in test [2] and 1.8 nM in test [3].

With `Cc1cc(C)c(CNC(=O)c2cc(C3=CCCCC3)c3c(c2C)OC(C)([C@H]2CC[C@H](N(C)C)CC2)O3)c(=O)[nH]1` (relative stereo) [Example 60, 7-(Cyclohexen-1-yl)-2-[trans-4-(dimethylamino)cyclohexyl]-N-[(4,6-dimethyl-2-oxo-1,2-dihydropyridin-3-yl)methyl]-2,4-dimethyl-1,3-benzodioxole-5-carboxamide], the results for the IC50 in test [1], in test [2] and in test [3] were 14 nM, 7.3 nM and 3.7 nM, respectively.

For the molecule `CCN1CCN(c2ccc(-c3cc(C(=O)NCc4c(C)cc(C)[nH]c4=O)c(C)c4c3OC(C)([C@H]3CC[C@H](N(C)C)CC3)O4)cn2)CC1` (relative stereo) [Example 61, 2-[trans-4-(Dimethylamino)cyclohexyl]-N-[(4,6-dimethyl-2-oxo-1,2-dihydropyridin-3-yl)methyl]-7-[6-(4-ethylpiperazin-1-yl)-3-pyridyl]-2,4-dimethyl-1,3-benzodioxole-5-carboxamide], the IC50 in test [1] turned out to be 21 nM; in test [2], 8 nM; in test [3], 10 nM.

For `Cc1cc(C)c(CNC(=O)c2cc(C3=CCOCC3)c3c(c2C)OC(C)([C@H]2CC[C@H](N(C)C)CC2)O3)c(=O)[nH]1` (relative stereo) [Example 62, 7-(3,6-Dihydro-2H-pyran-4-yl)-2-[trans-4-(dimethylamino)cyclohexyl]-N-[(4,6-dimethyl-2-oxo-1,2-dihydropyridin-3-yl)methyl]-2,4-dimethyl-1,3-benzodioxole-5-carboxamide], the IC50 came out at 6.6 nM in test [1], 11 nM in test [2] and 5.5 nM in test [3].

As for `Cc1cc(C)c(CNC(=O)c2cc(-c3ccc(CN4CCOCC4)nc3)c3c(c2C)OC(C)([C@H]2CC[C@H](N(C)C)CC2)O3)c(=O)[nH]1` (relative stereo) [Example 63, 2-[trans-4-(Dimethylamino)cyclohexyl]-N-[(4,6-dimethyl-2-oxo-1,2-dihydropyridin-3-yl)methyl]-2,4-dimethyl-7-[6-(morpholinomethyl)-3-pyridyl]-1,3-benzodioxole-5-carboxamide], the IC50 in test [1] was 22 nM; in test [2], 17 nM; in test [3], 13 nM.

On to `Cc1cc(C)c(CNC(=O)c2cc(-c3cccnc3)c3c(c2C)OC(C)([C@H]2CC[C@H](N(C)C)CC2)O3)c(=O)[nH]1` (relative stereo) [Example 64, 2-[trans-4-(Dimethylamino)cyclohexyl]-N-[(4,6-dimethyl-2-oxo-1,2-dihydropyridin-3-yl)methyl]-2,4-dimethyl-7-(3-pyridyl)-1,3-benzodioxole-5-carboxamide], for which the IC50 in test [1] worked out at 14 nM; in test [2], 22 nM; in test [3], 6.8 nM.

For `Cc1cc(C)c(CNC(=O)c2cc(-c3cnn(C)c3)c3c(c2C)OC(C)([C@H]2CC[C@H](N(C)C)CC2)O3)c(=O)[nH]1` (relative stereo) [Example 65, 2-[trans-4-(Dimethylamino)cyclohexyl]-N-[(4,6-dimethyl-2-oxo-1,2-dihydropyridin-3-yl)methyl]-2,4-dimethyl-7-(1-methylpyrazol-4-yl)-1,3-benzodioxole-5-carboxamide hydrochloride], the IC50 in test [1] is 18 nM; in test [2], 23 nM; in test [3], 13 nM.

Consider `C=Cc1cc(C(=O)NCc2c(C)cc(C)[nH]c2=O)c(C)c2c1OC(C)([C@H]1CC[C@H](N(C)C)CC1)O2` (relative stereo) [Example 66, 2-[trans-4-(Dimethylamino)cyclohexyl]-N-[(4,6-dimethyl-2-oxo-1,2-dihydropyridin-3-yl)methyl]-2,4-dimethyl-7-vinyl-1,3-benzodioxole-5-carboxamide], for which the IC50 is 22 nM in test [1], 27 nM in test [2] and 1.7 nM in test [3].

`C#Cc1cc(C(=O)NCc2c(C)cc(C)[nH]c2=O)c(C)c2c1OC(C)([C@H]1CC[C@H](N(C)C)CC1)O2` (relative stereo) [Example 67, 2-[trans-4-(Dimethylamino)cyclohexyl]-N-[(4,6-dimethyl-2-oxo-1,2-dihydropyridin-3-yl)methyl]-7-ethynyl-2,4-dimethyl-1,3-benzodioxole-5-carboxamide]: the IC50 came out at 19 nM in test [1], 17 nM in test [2] and 1 nM in test [3].
